Experiment [1] concerns taxol resistant CCRF-CEM derivative cells. Briefly: Cell death in taxol/vinblastine resistance panel. In kind it is cell-based. To be noted: Homo sapiens. As for the experimental part: (§1) In certain embodiments, the sensitivity to erastin, can be tested in cell lines that are resistant to taxol and vinblastine. The sensitivity of CCRF-CEM parental, and taxol and vinblastine resistant derivative cells to erastin was tested. […] Erastin analogues can be tested to ensure their effectiveness in inducing cell death in tumor cell line which are resistant to taxol or vinblastin, or other ant-tumor agents.

A further experiment has as its system CCRF-CEM parental cells. The experiment can be described thus: Cell death in taxol/vinblastine resistance panel. To be noted: Homo sapiens. In kind it is cell-based. The protocol:
as §1

Experiment [2] concerns vinblastine resistant CCRF-CEM derivative cells. The experiment can be described thus: Cell death in taxol/vinblastine resistance panel. In kind it is cell-based. To be noted: Homo sapiens. The protocol:
as §1

The next experiment relates to BJELR cells. The experiment can be described thus: Erastin sensitivity after upregulation of VDAC proteins by nucleofection. In kind it is cell-based, human. An excerpt: Quantitative western blot showing the ratio of VDACs (top band, green) to eif4E (bottom band, red) (e). […] Green, untransfected BJELR cells; blue, mock nucleofected BJELR cells; red, VDAC2/3-nucleofected BJELR cells (f).
In certain aspects, the invention provides that erastin acts by a gain-of-function mechanism and that cells with more VDAC proteins are more sensitive to erastin. A gain-of-function mechanism operates in cells which have increased levels of topoisomerase I and are thus more sensitive to camptothecin^149. […] In other embodiments, cell lines can be stably transfected with vectors expressing VDAC1, 2, and/or 3. Thus, increased VDAC expression leads to erastin sensitivity which is consistent with a gain of function mechanism. Furthermore, a knockdown of VDACs causes erastin resistance.

A further experiment deals with cytochrome c. Briefly: Cytochrome c release from mitochondria. The format is cell-based, human. To be noted: BJ-TERT/LT/ST/RAS^V12 cells; staurosporine 1 μM or erastin 20 μg/mL, 6 h. As for the experimental part: BJ-TERT/LT/ST/RAS^V12 cells were seeded in polystyrene 100×20 mm dishes in 10 ml media. After overnight incubation at 37° C. with 5% CO2, the cells were treated with nothing (NT), staurosporine (ST, 1 μM) or erastin (20 μg/mL) for 6 h, washed with 10 mL ice-cold PBS and lysed by passage through a 25-gauge needle (five strokes). Cell lysates were centrifuged at 1850 rpm for 5 min at 4° C. to remove the nuclear fraction. Mitochondria were removed from the soluble cytosolic fraction by pelleting at 10,000 rpm. Supernatant and mitochondrial pellets were solubilized in SDS-PAGE loading buffer and analyzed by western blot using anti-cytochrome c and pan-VDAC antibodies and IR-dye-linked secondary antibodies. VDACs are mitochondrial proteins, so their absence in the cytosolic lane indicates effective separation of cytosol (C) from mitochondria (M). Fluorescence was detected on a LI-COR Odyssey infrared scanner.
For the cytochrome c release assay, cells were washed with 10 mL of ice-cold PBS, suspended in 120 μL of buffer (300 mM sucrose, 0.1% BSA, 10 mM HEPES, pH 7.5, 10 mM KCl, 1.5 mM MgCl2, 1 mM EGTA, 1 mM EDTA, 1 mM dithiothreitol, 2 mM phenylmethanesulfonyl fluoride and 1 protease inhibitor tablet (Roche)) and incubated on ice for 15 min. […] Supernatant and mitochondrial pellets were solubilized in SDS-PAGE loading buffer and analyzed by western blotting.

Another experiment has as its system BJ-DRD cells. The experiment can be described thus: Alamar Blue viability assay. In kind it is cell-based. To be noted: Homo sapiens; BJ-DRD (+RAS). From the text:
The engineered tumor cells make use of dominantly acting viral oncoproteins (LT and ST). These viral proteins are involved in cell transformation in specific forms of cancer, namely simian virus 40-induced malignant mesothelioma^134 and other viral oncogenes (E6 and E7) are involved in human papillomavirus-induced cervical carcinoma^135, and have been used to disrupt p53 and pRB function to transform cells in vitro and in vivo^136-138. The selectivity of erastin and the other compounds were further established in a cell line expressing dominant negative inhibitors of p53 and pRB not derived from viral elements. This cell line expresses (i) a truncated form of p53 (p53DD) that disrupts the tetramerization of endogenous p53, (ii) a CDK4^R24C mutant resistant to inhibition by p16INK4A and p15INK4B (the major negative regulators of CDK4) and (iii) cyclin D1. The effects of these RAS^V12-selective compounds at a range of concentrations were tested in these cells, BJ-TERT/p53^DD/CDK4^R24C/D1/ST/RAS^V12 (named BJ-DRD) cells. […] Thus, these compounds (including erastin) are effective in tumor cells transformed without viral proteins (other than ST).
Alamar Blue metabolism: 10% Alamar Blue was added to assay plates, which were then incubated for an additional 16 hours. Red fluorescence, resulting from reduction of Alamar Blue, was detected on a Victor3 platereader (ex: 530, em: 590).
Table 2. […]

In experiment [3] the test system is BJ-TERT/LT/ST/RAS^V12 cells. The experiment can be described thus: Annexin V staining. The format is cell-based, human. To be noted: erastin 9 μM. As for the experimental part:
The percentage of cells in the indicated Ml region were 6%, 6%, and 38% in untreated, erastin-treated (9 μM), and camptothecin-treated (1 μM), respectively.

Converted amounts (≈) assume the structure as drawn.

A word on the IC50: it is the concentration that gives 50% inhibition. Turning to `CCOc1ccccc1-n1c(C(C)N2CCN(C(=O)COc3ccc(Cl)cc3)CC2)nc2ccccc2c1=O` (stereo not shown) [erastin, 2-(1-{4-[2-(4-Chloro-phenoxy)-acetyl]-piperazin-1-yl}-ethyl)-3-(2-ethoxy-phenyl)-3H-quinazolin-4-one], the IC50 stood at 7 µM in experiment [1], 11 µM with CCRF-CEM parental cells, 8 µM in experiment [2] and 2.5 µg/mL (≈ 4.57 µM) in the experiment on BJ-DRD cells. For the same molecule, the “Increase in sensitivity to erastin” value in the experiment with BJELR cells is given as “about two to three-fold”. For the same molecule, in the experiment with cytochrome c, the “Cytochrome c release from mitochondria” value was “does not induce cytochrome c release”. Also, the “percentage of cells in M1 region (Annexin V staining)” value in experiment [3] came out at 6%.

The values are drawn from US20080299076A1, “Compunds and compositions that cause non-apoptotic cell death and uses thereof” (priority 2006, published 2008).
